A word on the EC50: it is the concentration at which the effect is half-maximal.

The source made the active and inactive calls. The rule behind the calls is not given here.

The test system of the assay is FXN GAA850 promoter luciferase reporter, luminescence. Briefly: expanded-repeat frataxin promoter luciferase activation – cell-based, luminescence, GAA850 repeat, dose response (AID 651792).
On to `COc1ccccc1NC(=O)c1cnc(SCC(=O)Nc2ccc3c(c2)OCO3)n(C)c1=O`, for which the EC50 is > 59.6 µM (inactive).
The result for `CCc1nnc(NC(=O)CSc2ncc(C(=O)Nc3ccc(C)c(C)c3)c(=O)n2C)s1` reads > 59.6 µM (inactive).
The result for `CSc1ccc2nc(Nc3nnc(-c4ccccc4Cl)o3)sc2c1` reads > 59.6 µM (inactive); that for `COc1cccc2sc(Nc3nnc(-c4ccccc4Cl)o3)nc12`, > 59.6 µM (inactive).
The result for `COc1ccccc1NC(=O)c1cnc(SCC(=O)Nc2cc(C)on2)n(C)c1=O` reads > 59.6 µM (inactive).
Regarding `COc1cccc2sc(Nc3nnc(-c4ccc(F)cc4)o3)nc12`, the EC50 was > 59.6 µM (inactive).
Regarding `COc1ccc(-c2nnc(Nc3nc4ccc(F)cc4s3)o2)c(OC)c1`, the EC50 was > 59.6 µM (inactive).
The result for `Cn1c(SCC(=O)NCC2CCCO2)ncc(C(=O)Nc2ccccc2)c1=O` (configuration not stated) reads > 59.6 µM (inactive).
The result for `COc1ccccc1NC(=O)c1cnc(SCC(=O)NCC2CCCO2)n(C)c1=O` (configuration not stated) reads > 59.6 µM (inactive); that for `Fc1ccc2nc(Nc3nnc(-c4ccccc4Cl)o3)sc2c1`, > 59.6 µM (inactive).
In the case of `COc1ccccc1-c1nnc(Nc2nc3ccc(F)cc3s2)o1`, the EC50 is > 59.6 µM (inactive).
As for `COc1ccc(-c2nnc(Nc3nc4ccc(OC)cc4s3)o2)c(OC)c1`, the EC50 was > 59.6 µM (inactive).
The result for `CSc1ccc2nc(Nc3nnc(-c4ccc5c(c4)OCCO5)o3)sc2c1` reads > 59.6 µM (inactive); that for `COc1ccc(-c2nnc(Nc3nc4cc(OC)ccc4s3)o2)c(OC)c1`, > 59.6 µM (inactive); that for `COc1cccc2sc(Nc3nnc(-c4ccccc4)o3)nc12`, > 59.6 µM (inactive).
The result for `Cc1ccc(NC(=O)c2cnc(SCC(=O)Nc3cccc(C(F)(F)F)c3)n(C)c2=O)cc1C` reads > 59.6 µM (inactive).
As to `COc1ccccc1NC(=O)c1cnc(SCC(=O)NCc2ccc3c(c2)OCO3)n(C)c1=O`, the EC50 is > 59.6 µM (inactive).
The result for `COc1ccccc1NC(=O)c1cnc(SCC(=O)Nc2nc3ccccc3s2)n(C)c1=O` reads > 59.6 µM (inactive); that for `Fc1cccc2sc(Nc3nnc(-c4ccccc4Cl)o3)nc12`, > 59.6 µM (inactive).
Consider `COc1ccccc1CNC(=O)CSc1ncc(C(=O)Nc2ccccc2)c(=O)n1C`, for which the EC50 was > 59.6 µM (inactive).
The result for `COc1ccc(-c2nnc(Nc3nc4c(F)cccc4s3)o2)c(OC)c1` reads > 59.6 µM (inactive); that for `COc1ccc(-c2nnc(Nc3nc4c(OC)cccc4s3)o2)c(OC)c1`, > 59.6 µM (inactive).
The result for `COc1ccccc1-c1nnc(Nc2nc3c(OC)cccc3s2)o1` reads > 59.6 µM (inactive).
The result for `COc1ccc(-c2nnc(Nc3nc4c(OC)cccc4s3)o2)cc1` reads > 59.6 µM (inactive); that for `COc1ccc(-c2nnc(Nc3nc4ccc(SC)cc4s3)o2)c(OC)c1`, > 59.6 µM (inactive).
With `COc1ccccc1NC(=O)c1cnc(SCC(=O)NCCc2ccccc2)n(C)c1=O`, the EC50 was > 59.6 µM (inactive).
Consider `COc1ccccc1NC(=O)c1cnc(SCC(=O)NCc2ccccc2)n(C)c1=O`, for which the EC50 was > 59.6 µM (inactive).
The result for `Cn1c(SCC(=O)NCC2CCCO2)ncc(C(=O)Nc2ccc(Cl)cc2)c1=O` (configuration not stated) reads > 59.6 µM (inactive); that for `Fc1ccc(-c2nnc(Nc3nc4c(F)cccc4s3)o2)cc1`, > 59.6 µM (inactive).
The result for `Clc1ccccc1-c1nnc(Nc2nc3cc4c(cc3s2)OCO4)o1` reads > 59.6 µM (inactive); that for `Cn1c(SCC(=O)NCC2CCCO2)ncc(C(=O)Nc2ccc(F)cc2)c1=O` (configuration not stated), > 59.6 µM (inactive).
On to `Clc1ccc(-c2nnc(Nc3nc4cc5c(cc4s3)OCO5)o2)cc1`, for which the EC50 was > 59.6 µM (inactive).

For the origin of these results see PubChem BioAssay AID651792 (The Scripps Research Institute Molecular Screening Center, 2012).
